Molecular target: T1, BRM (Homo sapiens, UniProt P51531)
T1 construct: Western Blot Screen of BRM Degradation in SW1573 Cells; endogenous in cells; host or cells: SW1573 cells
Assay: BRM degradation (Dmax and DC50) in SW1573 cells, Western blot screen / In-Cell Western screen
Type: cell-based
Conditions: overnight (18-20 hours) treatment; for Dmax: read-out: Dmax (%)** (% degraded)
Description: (§1) To assess BRM degradation (Dmax and DC50) cells were seeded at 8000/well in 96-well black/clear-bottom plates in 180 μL DMEM growth media (containing 1% pen-strep, 1% HEPES and 10% FBS) per well. Plates were incubated overnight to allow adhesion. The next morning cells were treated by adding 20 μL of 10× target compound concentration (1% DMSO) to appropriate wells and returned to incubator for overnight (18-20 hours). The final DMSO concentration was 0.1%.
For lysing, adherent cells were washed once with 100 μL of DPBS. Cells were lysed in 40 μL of 1×RIPA+HALT protease inhibitor on ice for 10 minutes and frozen until use at −80° C. Thawed lysates were cleaned by filtration in 1.2 µm filter plates, or alternatively, were spun clean at 2300 g at 4° C. for 30 minutes.
For blotting, for each Western sample 30 μL of lysate was added to 10 μL of 4× LDS sample buffer, then denatured at 95° C. for 5 minutes in the thermal cycler and placed on ice. Samples were loaded on 4-15% Tris/Glycine gels and run for 25 minutes at 250 constant volts in 1× Tris/Glycine buffer with 4 μL of ladder and 12 μL of each sample loaded for each blot. Protein was transferred from gels to NC with BioRad Turbo dry-transfer unit with the Turbo/midi default program. All blots were rinsed with ddH2O and blocked for 1 hour at room temperature in 5% BSA in TBST (0.1%) on rocker. Blots were exposed to primary antibody in 5% BSA in TBST (0.1%) overnight at 4° C. on rocker (1:1000 for BRM (Cell Signaling Tech. cat #11966) and 1:2000 for alpha-tubulin (Cell Signaling Tech. cat #3873), a control protein. Blot was washed with TBST (0.1%) three times for 5 minutes on rocker at room temperature. Secondary antibody was added, and blots were incubated on a room temperature rocker for 1 hour with 1:18,000 anti-rabbit-HRP and/or anti-mouse-HRP in 5% BSA in TBST (0.1%). Blots were washed three times in TBST (0.1%) for 5 minutes at room temperature on the rocker. Signal was developed with Femto Maximum Sensitivity substrate for 4 minutes and blots read on ChemiDoc™.
as §1, with “DC50),” for “DC50)”, “10×” for “10× target”, “compound” for “compound concentration”
For processing, the plates were removed from incubator, the media was removed, and immediately 200 μL of cold (4° C.) DPBS was added to all wells. DPBS was then removed, and 50 μL of 4% paraformaldehyde (PFA) in DPBS (4° C.) was added to all wells, and the plates were incubated at room temperature for 20 minutes. PFA was then removed, and 200 μL of TBS-T containing 0.5% Triton X-100 was added to all wells, and the plates were incubated at room temperature for 30 minutes. TBS-T containing 0.5% Triton X-100 was then removed, and 50 μL of Li-Cor blocking solution was added, and the plates were incubated at room temperature for a minimum of one hour. The blocking solution was removed, and 50 μL of Li-Cor blocking solution containing primary antibody cocktail was added (1:1000 for BRM (Cell Signaling Tech. cat #11966) and 1:2000 for alpha-tubulin (Sigma cat #T6074), a control protein. Plates were then placed in cold room until the next day.
The next day plates were washed three times with TBS-T, 200 μL per well. Fifty […] of secondary antibody cocktail in LI-COR blocking solution (anti-rabbit_800 nm and anti-mouse_680 nm) was added to all wells (diluted 1:5000). The plates were incubated at room temperature for at least one hour while protected from light. The plates were washed twice with TBS-T, 200 μL per well.
To read each plate TBS-T was removed, and each plate was inverted tapped on a paper towel. […]

T1 sequence (P51531 whole entry): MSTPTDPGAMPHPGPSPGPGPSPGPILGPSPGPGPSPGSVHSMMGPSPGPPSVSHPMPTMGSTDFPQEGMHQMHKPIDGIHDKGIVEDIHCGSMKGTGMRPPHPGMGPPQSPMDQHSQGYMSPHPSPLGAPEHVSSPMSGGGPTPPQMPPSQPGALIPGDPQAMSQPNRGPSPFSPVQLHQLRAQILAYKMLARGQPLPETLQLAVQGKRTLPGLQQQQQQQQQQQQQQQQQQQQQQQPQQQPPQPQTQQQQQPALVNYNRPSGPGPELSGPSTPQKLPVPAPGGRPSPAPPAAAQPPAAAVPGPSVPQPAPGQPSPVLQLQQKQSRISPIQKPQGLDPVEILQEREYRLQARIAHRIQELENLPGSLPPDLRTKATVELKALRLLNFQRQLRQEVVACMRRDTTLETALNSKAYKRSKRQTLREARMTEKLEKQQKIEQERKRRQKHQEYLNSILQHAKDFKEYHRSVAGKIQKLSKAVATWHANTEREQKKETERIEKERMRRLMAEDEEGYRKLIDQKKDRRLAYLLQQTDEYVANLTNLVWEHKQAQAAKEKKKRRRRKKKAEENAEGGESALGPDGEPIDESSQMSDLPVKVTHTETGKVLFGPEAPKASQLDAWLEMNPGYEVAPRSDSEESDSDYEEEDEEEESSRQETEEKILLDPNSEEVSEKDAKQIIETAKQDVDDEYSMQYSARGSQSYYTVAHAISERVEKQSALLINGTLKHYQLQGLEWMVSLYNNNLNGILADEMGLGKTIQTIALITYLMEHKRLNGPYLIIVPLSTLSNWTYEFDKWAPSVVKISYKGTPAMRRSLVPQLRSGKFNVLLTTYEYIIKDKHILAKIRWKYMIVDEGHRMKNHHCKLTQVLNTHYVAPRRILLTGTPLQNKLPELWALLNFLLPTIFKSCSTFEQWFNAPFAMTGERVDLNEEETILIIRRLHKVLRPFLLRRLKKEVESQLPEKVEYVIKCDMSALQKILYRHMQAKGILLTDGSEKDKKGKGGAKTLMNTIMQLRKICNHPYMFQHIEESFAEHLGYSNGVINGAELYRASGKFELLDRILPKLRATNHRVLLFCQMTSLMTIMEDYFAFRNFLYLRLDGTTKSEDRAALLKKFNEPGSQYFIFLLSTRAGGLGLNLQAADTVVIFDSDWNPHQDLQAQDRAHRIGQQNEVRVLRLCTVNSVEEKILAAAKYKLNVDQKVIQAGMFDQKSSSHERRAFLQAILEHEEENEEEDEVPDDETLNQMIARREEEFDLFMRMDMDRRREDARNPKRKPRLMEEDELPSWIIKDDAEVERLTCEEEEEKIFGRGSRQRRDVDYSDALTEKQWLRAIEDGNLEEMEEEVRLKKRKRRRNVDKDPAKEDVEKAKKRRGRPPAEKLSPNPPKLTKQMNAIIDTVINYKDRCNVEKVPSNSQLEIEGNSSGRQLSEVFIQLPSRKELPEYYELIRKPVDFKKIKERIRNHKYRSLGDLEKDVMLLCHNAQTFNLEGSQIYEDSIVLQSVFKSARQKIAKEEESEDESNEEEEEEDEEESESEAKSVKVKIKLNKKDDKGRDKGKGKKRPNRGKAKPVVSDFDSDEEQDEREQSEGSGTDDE

Row | SMILES | DC50 [nM] | Dmax [%]
1 | CC(C)[C@@H](C(=O)N1C[C@H](O)C[C@H]1C(=O)N[C@@H](C)c1ccc(-c2scnc2C#CCOCCOCCOCCOCCOc2cc(N3C4CCC3CN(c3cc(-c5ccccc5O)nnc3N)C4)ccn2)cc1)N1Cc2ccccc2C1=O [Compound 83, (2S,4R)-N-[(1S)-1-[4-(4-{1-[(4-{3-[3-amino-6-(2-hydroxyphenyl)pyridazin-4-yl]-3,8-diazabicyclo[3.2.1]octan-8-yl}pyridin-2-yl)oxy]-3,6,9,12-tetraoxapentadec-14-yn-15-yl}-1,3-thiazol-5-yl)phenyl]ethyl]-4-hydroxy-1-[(2S)-3-methyl-2-(1-oxo-2,3-dihydro-1H-isoindol-2-yl)butanoyl]pyrrolidine-2-carboxamide] | ≥ 30 | –
2 | CC(C)[C@@H](C(=O)N1C[C@H](O)C[C@H]1C(=O)N[C@@H](C)c1ccc(-c2ccnn2C)cc1)c1cc(N2CCC(OC3CCN(CC4CC(N5CCC([C@@H](C)n6cc(C#Cc7cc(-c8ccccc8O)nnc7N)cn6)CC5)C4)CC3)CC2)no1 (stereo partly drawn) [Compound 110, (2S,4R)-1-[(2R)-2-{3-[4-({1-[(3-{4-[(1R)-1-(4-{2-[3-amino-6-(2-hydroxyphenyl)pyridazin-4-yl]ethynyl}-1H-pyrazol-1-yl)ethyl]piperidin-1-yl}cyclobutyl)methyl]piperidin-4-yl}oxy)piperidin-1-yl]-1,2-oxazol-5-yl}-3-methylbutanoyl]-4-hydroxy-N-[(1S)-1-[4-(1-methyl-1H-pyrazol-5-yl)phenyl]ethyl]pyrrolidine-2-carboxamide] | < 2.5 | > 75
3 | CC(C)[C@H](C(=O)N1C[C@H](O)C[C@H]1C(=O)N[C@@H](C)c1ccc(-c2ccnn2C)cc1)c1cc(N2CCC(CN3CCC(O[C@H]4C[C@H](Oc5cc(N6CCN(c7cc(-c8ccccc8O)nnc7N)CC6)ccn5)C4)CC3)CC2)no1 [Compound 2, (2S,4R)-4-hydroxy-N-[(1S)-1-[4-(1-methyl-1H-pyrazol-5-yl)phenyl]ethyl]-1-[(2S)-3-methyl-2-{3-[4-({4-[(1r,3r)-3-[(4-{4-[3-amino-6-(2-hydroxyphenyl)pyridazin-4-yl]piperazin-1-yl}pyridin-2-yl)oxy]cyclobutoxy]piperidin-1-yl}methyl)piperidin-1-yl]-1,2-oxazol-5-yl}butanoyl]pyrrolidine-2-carboxamide] | ≥ 30 | –
4 | Cc1ncsc1-c1ccc([C@H](C)NC(=O)[C@@H]2C[C@@H](O)CN2C(=O)[C@@H](c2cc(N3CCC(CN4CCC(O[C@H]5C[C@H](N6CCC(Cc7cnn(-c8cc(-c9ccccc9O)nnc8N)c7)CC6)C5)CC4)CC3)no2)C(C)C)cc1 [Compound 105, (2S,4R)-4-hydroxy-N-[(1S)-1-[4-(4-methyl-1,3-thiazol-5-yl)phenyl]ethyl]-1-[(2R)-3-methyl-2-{3-[4-({4-[(1r,3r)-3-[4-({1-[3-amino-6-(2-hydroxyphenyl)pyridazin-4-yl]-1H-pyrazol-4-yl}methyl)piperidin-1-yl]cyclobutoxy]piperidin-1-yl}methyl)piperidin-1-yl]-1,2-oxazol-5-yl}butanoyl]pyrrolidine-2-carboxamide] | < 2.5 | > 75
5 | CC(C)[C@@H](C(=O)N1C[C@H](O)C[C@H]1C(=O)N[C@@H](C)c1ccc(-c2ccnn2C)cc1)c1cc(N2CCC(CN3CCC4(CC3)CC(N3CCO[C@@H](CN5C6CCC5CN(c5cc(-c7ccccc7O)nnc5N)C6)C3)C4)CC2)no1 [Compound 106, (2S,4R)-1-[(2R)-2-{3-[4-({2-[(2R)-2-({3-[3-amino-6-(2-hydroxyphenyl)pyridazin-4-yl]-3,8-diazabicyclo[3.2.1]octan-8-yl}methyl)morpholin-4-yl]-7-azaspiro[3.5]nonan-7-yl}methyl)piperidin-1-yl]-1,2-oxazol-5-yl}-3-methylbutanoyl]-4-hydroxy-N-[(1S)-1-[4-(1-methyl-1H-pyrazol-5-yl)phenyl]ethyl]pyrrolidine-2-carboxamide] | < 2.5 | > 75
6 | Cc1ncsc1-c1ccc([C@H](C)NC(=O)[C@@H]2C[C@@H](O)CN2C(=O)[C@@H](c2cc(N3CCC(CN4CCC(O[C@H]5C[C@@H](N6CCC([C@@H](C)n7cc(-c8cc(-c9ccccc9O)nnc8N)cn7)CC6)C5)CC4)CC3)no2)C(C)C)cc1 (single isomer, unassigned) [Compound 6] | < 2.5 | > 75
7 | Cc1ncsc1-c1ccc([C@H](C)NC(=O)[C@@H]2C[C@@H](O)CN2C(=O)[C@@H](c2cc(N3CCC(CN4CCC(O[C@H]5C[C@H](N6CCC(O)(CN7C8CCC7CN(c7cc(-c9ccccc9O)nnc7N)C8)CC6)C5)CC4)CC3)no2)C(C)C)cc1 [Compound 11, (2S,4R)-4-hydroxy-N-[(1S)-1-[4-(4-methyl-1,3-thiazol-5-yl)phenyl]ethyl]-1-[(2R)-3-methyl-2-{3-[4-({4-[(1r,3r)-3-[4-({3-[3-amino-6-(2-hydroxyphenyl)pyridazin-4-yl]-3,8-diazabicyclo[3.2.1]octan-8-yl}methyl)-4-hydroxypiperidin-1-yl]cyclobutoxy]piperidin-1-yl}methyl)piperidin-1-yl]-1,2-oxazol-5-yl}butanoyl]pyrrolidine-2-carboxamide] | < 2.5 | > 75
8 | Cc1ncsc1-c1ccc([C@H](C)NC(=O)[C@@H]2C[C@@H](O)CN2C(=O)[C@@H](c2cc(N3CCC(CN4CCC(O[C@H]5C[C@H](N6CC(F)(F)OC7(CCN(c8cc(-c9ccccc9O)nnc8N)CC7)C6)C5)CC4)CC3)no2)C(C)C)cc1 [Compound 55, (2S,4R)-4-hydroxy-N-[(1S)-1-[4-(4-methyl-1,3-thiazol-5-yl)phenyl]ethyl]-1-[(2R)-3-methyl-2-{3-[4-({4-[(1r,3r)-3-{9-[3-amino-6-(2-hydroxyphenyl)pyridazin-4-yl]-2,2-difluoro-1-oxa-4,9-diazaspiro[5.5]undecan-4-yl}cyclobutoxy]piperidin-1-yl}methyl)piperidin-1-yl]-1,2-oxazol-5-yl}butanoyl]pyrrolidine-2-carboxamide] | < 2.5 | > 75
9 | CC(C)[C@@H](C(=O)N1C[C@H](O)C[C@H]1C(=O)N[C@@H](C)c1ccc(C#N)cc1)c1cc(N2CCC(CN3CCC(O[C@H]4C[C@H](Oc5cc(N6C7CC6CN(c6cc(-c8ccccc8O)nnc6N)C7)ccn5)C4)CC3)CC2)no1 [Compound 17, (2S,4R)-N-[(1S)-1-(4-cyanophenyl)ethyl]-4-hydroxy-1-[(2R)-3-methyl-2-{3-[4-({4-[(1r,3r)-3-[(4-{3-[3-amino-6-(2-hydroxyphenyl)pyridazin-4-yl]-3,6-diazabicyclo[3.1.1]heptan-6-yl}pyridin-2-yl)oxy]cyclobutoxy]piperidin-1-yl}methyl)piperidin-1-yl]-1,2-oxazol-5-yl}butanoyl]pyrrolidine-2-carboxamide] | < 2.5 | > 75
10 | CC(C)[C@H](C(=O)N1C[C@H](O)C[C@H]1C(=O)N[C@@H](C)c1ccc(C#N)cc1)c1cc(N2CCC(C(=O)N3CCC(O[C@H]4C[C@H](Oc5cc(N6C7CCC6CN(c6cc(-c8ccccc8O)nnc6N)C7)ccn5)C4)CC3)CC2)no1 [Compound 137, (2S,4R)-N-[(1S)-1-(4-cyanophenyl)ethyl]-4-hydroxy-1-[(2S)-3-methyl-2-[3-(4-{4-[(1r,3r)-3-[(4-{3-[3-amino-6-(2-hydroxyphenyl)pyridazin-4-yl]-3,8-diazabicyclo[3.2.1]octan-8-yl}pyridin-2-yl)oxy]cyclobutoxy]piperidine-1-carbonyl}piperidin-1-yl)-1,2-oxazol-5-yl]butanoyl]pyrrolidine-2-carboxamide] | ≥ 30 | –

From US20250059198A1, “BRM DEGRADING COMPOUNDS AND ASSOCIATED METHODS OF USE” (Arvinas Operations, Inc., priority 2021, published 2025)
